Results as given in patent US9969692B2, “Process for preparing quinoline derivatives” (Exelixis, Inc., priority 2011, dated 2018).

Assay: Gravimetric vapor sorption (GVS) moisture adsorption desorption isotherm
Type: physicochemical
Conditions: 25° C. and 90% humidity
Method: A gravimetric vapor sorption (GVS) study was run using a standard procedure. Samples were run on a dynamic vapor sorption analyzer (Surface Measurement Systems) running DVSCFR software. Sample sizes were typically 10 mg. A moisture adsorption desorption isotherm was performed as outlined below. The standard isotherm experiment, performed at 25° C., is a two-cycle run, starting at 40% RH (relative humidity), increasing humidity to 90% RH, decreasing humidity to 0% RH, increasing humidity again to 90% RH, and finally decreasing humidity to 0% RH in 10% RH intervals.

For `COc1cc2c(Oc3ccc(NC(=O)C4(C(=O)Nc5ccc(F)cc5)CC4)cc3F)ccnc2cc1OCCCN1CCOCC1.O` [crystalline Compound 1, N-[3-fluoro-4-({6-(methyloxy)-7-[(3-morpholin-4-ylpropyl)oxy]quinolin-4-yl}oxy)phenyl]-N′-(4-fluorophenyl)cyclopropane-1,1-dicarboxamide crystalline hydrate], the “weight gain (GVS)” value was 2.5%.
